Experiments:
[1] = system: subject with type 1 diabetes; experiment: Pilot open-label observational study with continuous glucose monitoring, treatment three times per day before meals (Example 1); format: in vivo, human; conditions: 7.5 g tagatose prior to meals without allulose or ginger
Description: Example 1. A pilot, open-label observational study was conducted on a subject with type 1 diabetes. The subject used a Dexcom® continuous glucose monitoring system which recorded blood sugar levels every five minutes. The subject first completed an extensive control period for roughly two months to obtain background blood sugar levels.
Subsequently, the subject was administered numerous treatment protocols separated by washout periods of at least 7 days (typically two weeks). […] The subject completed treatments with the following active ingredients: (i) Experimental Treatment 1: tagatose plus allulose plus ginger, (ii) Experimental Treatment 2: tagatose plus ginger, (iii) Experimental Treatment 3: allulose plus ginger, and (iv) Experimental Treatment 4: a second treatment course comprising tagatose plus allulose plus ginger. […]
Blood sugar levels were recorded every five minutes using the continuous glucose monitoring system. Primary endpoints were (i) average blood sugar level over the course of treatment, (ii) number of five minute periods with blood sugar level over 180 mg/dL (“time with high blood sugar”) and (iii) “hyperglycemia index”, calculated as the fraction of time with blood sugar level over 250 mg/dL multiplied by the average magnitude of the these hyperglycemic periods (defined as the difference in mg/dL between the recorded blood sugar level and 250). […]

subjects = experiment: Experimental treatment with tagatose alone, gastrointestinal side effects; format: in vivo, human; conditions: no co-administration of allulose or ginger; treatment stopped after a couple of days
Source text: Both tagatose and allulose can give rise to significant gastrointestinal side effects (e.g., bloating, flatulence, abdominal pain, diarrhea). In our personal experience and anecdotally, the GI side effects are more significant for tagatose than allulose.

## O=C(CO)[C@@H](O)[C@@H](O)[C@H](O)CO [tagatose]
[1]
  reason treatment was not completed: GI discomfort
subjects
  GI side effects of tagatose alone: unpleasant GI side effects reported by a majority of subjects

Reference: patent US20250031744A1, “Methods and Compositions for Managing Blood Glucose Levels Using Rare Sugars” (DiaVita Therapeutics LLC, priority 2023, published 2025)
